Molecular target: T1, CDK4/cyclin D3 (Homo sapiens, UniProt P11802)
T1 construct: made in house; host or cells: insect cells (baculovirus co-infection)
Assay: Inhibition of CDK4/Cyclin D retinoblastoma kinase activity
Format: biochemical
Settings: for inhibition at 0.1 µM / % Inhib CDK4/D @ 0.1 μM: test compound at 0.1 μM; for inhibition at 0.1 µM: read-out: % Inhib CDK4/D @ 0.1 μM; for inhibition at 1 µM / % Inhib CDK4/D @ 1 μM: test compound at 1 μM (head line shifted: 'mM' printed beside 'Structure'); for inhibition at 1 µM: read-out: % Inhib CDK4/D @ 1 μM; for inhibition at 0.03 µM / % Inhib CDK4/D @ 0.03: test compound at 0.03 (unit cell empty, head line shifted; μM); for inhibition at 0.03 µM: read-out: % Inhib CDK4/D @ 0.03
Description: Cyclin-dependent kinase activity was measured by quantifying the enzyme-catalyzed, time-dependent incorporation of radioactive phosphate from [^32P]ATP or [^33P]ATP into a protein substrate. Unless noted otherwise, assays were performed in 96-well plates in a total volume of 50 μL, in the presence of 10 mM HEPES (N-[2-hydroxyethyl]piperazine-N′-[2-ethanesulfonic acid]) (pH 7.4), 10 mM MgCl2, 25 μM adenosine triphosphate (ATP), 1 mg/mL ovalbumin, 5 μg/mL leupeptin, 1 mM dithiothreitol, 10 mM β-glycerophosphate, 0.1 mM sodium vanadate, 1 mM sodium fluoride, 2.5 mM ethylene glycol-bis(β-aminoethyl ether)-N,N,N′N′-tetraacetic acid (EGTA), 2% (v/v) dimethylsulfoxide, and 0.03-0.4 μCi [^32/33P]ATP per reaction. Reactions were initiated with enzyme, incubated at 30° C., and terminated after 20 minutes by the addition of ethylenediaminetetraacetic acid (EDTA) to 250 mM. The phosphorylated substrate was then captured on a nitrocellulose or phosphocellulose membrane using a 96-well filtration manifold, and unincorporated radioactivity was removed by repeated washing with 0.85% phosphoric acid. Radioactivity was quantified by exposing the dried membranes to a phosphorimager.
Inhibition was measured relative to control wells that contained all reaction components including 2% (v/v) DMSO but no compound, after subtraction of background radioactivity measured in the absence of enzyme. Apparent Ki values of discrete compounds were measured by assaying enzyme activity in the presence of different inhibitor compound concentrations and subtracting the background radioactivity measured in the absence of enzyme. The kinetic parameters (kcat, Km for ATP) were measured for each enzyme under the usual assay conditions by determining the dependence of initial rates on ATP concentration. Inhibition data were fit to an equation for competitive inhibition using Kaleidagraph (Synergy Software), or were fit to an equation for competitive tight-binding inhibition using the software KineTic (BioKin, Ltd.).
A complex of human CDK4 and genetically truncated (1-264) cyclin D3 was purified using traditional biochemical chromatographic techniques from insect cells that had been co-infected with the corresponding baculovirus expression vectors (see e.g., Meijer and Kim, “Chemical Inhibitors of Cyclin-Dependent Kinases,” Methods in Enzymol., 283, 113-128 (1997)). The enzyme complex (5 nM) was assayed with 0.3-0.5 μg of purified recombinant retinoblastoma protein fragment (Rb) as a substrate. The engineered Rb fragment (residues 386-928 of the native retinoblastoma protein; 62.3 kDa) contains the majority of the phosphorylation sites found in the native 106-kDa protein, as well as a tag of six histidine residues for ease of purification. Phosphorylated Rb substrate was captured by microfiltration on a nitrocellulose membrane and quantified using a phosphorimager as described above. For measurement of tight-binding inhibitors, the assay duration was extended to 60 minutes, during which the time-dependence of product formation was linear and initial rate conditions were met.

T1 sequence (P11802 whole entry): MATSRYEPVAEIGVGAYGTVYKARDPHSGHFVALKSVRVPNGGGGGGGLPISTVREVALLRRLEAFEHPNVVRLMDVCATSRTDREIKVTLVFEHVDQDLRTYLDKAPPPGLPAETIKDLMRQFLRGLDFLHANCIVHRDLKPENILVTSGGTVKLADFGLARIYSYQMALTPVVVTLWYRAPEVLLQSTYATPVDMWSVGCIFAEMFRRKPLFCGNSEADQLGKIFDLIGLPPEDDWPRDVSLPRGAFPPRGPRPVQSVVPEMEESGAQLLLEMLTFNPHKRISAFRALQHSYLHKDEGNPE
T1 sequence (P30281 1-264 partner limits assumed): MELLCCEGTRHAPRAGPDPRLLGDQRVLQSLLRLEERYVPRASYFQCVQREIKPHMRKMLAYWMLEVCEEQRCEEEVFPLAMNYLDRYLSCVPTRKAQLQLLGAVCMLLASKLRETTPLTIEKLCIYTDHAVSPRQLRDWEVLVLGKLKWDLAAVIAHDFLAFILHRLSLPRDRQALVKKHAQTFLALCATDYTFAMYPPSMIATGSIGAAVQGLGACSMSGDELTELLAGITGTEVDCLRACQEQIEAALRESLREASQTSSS

Structure (SMILES) | inhibition at 0.1 µM [%] | inhibition at 1 µM [%] | inhibition at 0.03 µM [%] | % Inhib CDK4/D @ 0.1 μM [%] | % Inhib CDK4/D @ 1 μM [%] | % Inhib CDK4/D @ 0.03 [%] | Ki (apparent Ki, Rb fragment substrate) [nM]
Nc1nc(Nc2ccc([S+]([O-])CCCO)cc2)sc1C(=O)c1c(Cl)cccc1Cl (stereo not shown) [DD(85)] | 49 | 76.8 | 3.7 |  |  |  | 
COCCSc1cccc(Nc2nc(N)c(C(=O)c3c(Cl)cccc3Cl)s2)c1 [DD(54)] | 34 | 75.2 | 20 |  |  |  | 
CN(C)CC[S+]([O-])c1ccc(Nc2nc(N)c(C(=O)c3c(Cl)cccc3Cl)s2)cc1 (stereo not shown) [DD(112)] | 27 | 63.2 | -4.9 |  |  |  | 
Nc1nc(Nc2ccc([S+]([O-])Cc3ncon3)cc2)sc1C(=O)c1c(Cl)cccc1Cl (stereo not shown) [DD(88)] | 56 | 81.5 | 4.1 |  |  |  | 
CCN(CC)C(=O)C[S+]([O-])c1cccc(Nc2nc(N)c(C(=O)c3c(Cl)cccc3Cl)s2)c1 (stereo not shown) [DD(121)] | 41 | 59.8 | -0.5 |  |  |  | 
Nc1nc(Nc2ccc(S(=O)(=O)CCCO)cc2)sc1C(=O)c1c(Cl)cccc1Cl [DD(165)] |  |  |  | 10 | 34.3 | −1.8 | 
CN(C)CCC[S+]([O-])c1cccc(Nc2nc(N)c(C(=O)c3c(Cl)cccc3Cl)s2)c1 (stereo not shown) [DD(130)] | 41 | 56 | 12 |  |  |  | 
CC(=O)OCC[S+]([O-])c1cccc(Nc2nc(N)c(C(=O)c3c(Cl)cccc3Cl)s2)c1 (stereo not shown) [DD(157)] | 42 | 59.7 | 21 |  |  |  | 
NC(=O)CCS(=O)(=O)c1ccc(Nc2nc(N)c(C(=O)c3c(Cl)cccc3Cl)s2)cc1 [DD(228)] |  |  |  | 29 | 43 | 1 | 
COC(=O)CSc1ccc(Nc2nc(N)c(C(=O)c3c(Cl)cccc3Cl)s2)cc1 [DD(26)] | 65 | 87.5 | 9 |  |  |  | 
Nc1nc(Nc2cccc(SCC3CCCO3)c2)sc1C(=O)c1c(Cl)cccc1Cl (stereo not shown) [DD(58)] | 23 | 72.7 | 11 |  |  |  | 
Nc1nc(Nc2cccc([S+]([O-])CC3CNC(=O)O3)c2)sc1C(=O)c1c(Cl)cccc1Cl (stereo not shown) [DD(129)] | 33 | 33.3 | 19 |  |  |  | 
Nc1nc(Nc2cccc(SCC3CO3)c2)sc1C(=O)c1c(Cl)cccc1Cl (stereo not shown) [DD(52)] | 34 | 74.9 | 15 |  |  |  | 
CC(CSc1cccc(Nc2nc(N)c(C(=O)c3c(Cl)cccc3Cl)s2)c1)CN(C)C (stereo not shown) [DD(43)] | 16 | 71.3 | 25 |  |  |  | 
CCOCC[S+]([O-])c1cccc(Nc2nc(N)c(C(=O)c3c(Cl)cccc3Cl)s2)c1 (stereo not shown) [DD(153)] | 44 | 51.8 | 15 |  |  |  | 
Cc1noc(C)c1CSc1ccc(Nc2nc(N)c(C(=O)c3c(Cl)cccc3Cl)s2)cc1 [DD(2)] | 19 | 74 | 37 |  |  |  | 
CCOCCSc1cccc(Nc2nc(N)c(C(=O)c3c(Cl)cccc3Cl)s2)c1 [DD(73)] | 31 | 73.7 | 11 |  |  |  | 
Nc1nc(Nc2ccc(SCC3CNC(=O)O3)cc2)sc1C(=O)c1c(Cl)cccc1Cl (stereo not shown) [DD(9)] | -14 | 40.3 | -28 |  |  |  | 
Nc1nc(Nc2cccc(SCCN3CCOCC3)c2)sc1C(=O)c1c(Cl)cccc1Cl [DD(79)] | 4.3 | 62.3 | 9.1 |  |  |  | 

Structure (SMILES) | inhibition at 0.1 µM [%] | inhibition at 1 µM [%] | inhibition at 0.03 µM [%] | % Inhib CDK4/D @ 0.1 μM [%] | % Inhib CDK4/D @ 1 μM [%] | % Inhib CDK4/D @ 0.03 [%] | Ki (apparent Ki, Rb fragment substrate) [nM]
Nc1nc(Nc2ccc(SCc3ncon3)cc2)sc1C(=O)c1c(Cl)cccc1Cl [DD(8)] | 43 | 82.1 | 16 |  |  |  | 
CC(CSc1ccc(Nc2nc(N)c(C(=O)c3c(Cl)cccc3Cl)s2)cc1)CN(C)C (stereo not shown) [DD(3)] | 0.2 | 43.6 | 8.1 |  |  |  | 
CC1(C[S+]([O-])c2ccc(Nc3nc(N)c(C(=O)c4c(Cl)cccc4Cl)s3)cc2)CO1 (stereo not shown) [DD(100)] | 33 | 63.7 | 7.1 |  |  |  | 
CC(CN(C)C)C[S+]([O-])c1ccc(Nc2nc(N)c(C(=O)c3c(Cl)cccc3Cl)s2)cc1 (stereo not shown) [DD(83)] | 31 | 43 | -17 |  |  |  | 
CC(C)CCSc1cccc(Nc2nc(N)c(C(=O)c3c(Cl)cccc3Cl)s2)c1 [DD(53)] | 14 | 31.5 | 5.6 |  |  |  | 
CCC(CC)CS(=O)(=O)c1ccc(Nc2nc(N)c(C(=O)c3c(Cl)cccc3Cl)s2)cc1 [DD(236)] | 30 | 1.7 | -0.4 |  |  |  | 
NC(=O)CS(=O)(=O)c1ccc(Nc2nc(N)c(C(=O)c3c(Cl)cccc3Cl)s2)cc1 [DD(221)] |  |  |  | 21 | 17.6 | −14 | 
Nc1nc(Nc2cccc([S+]([O-])CCO)c2)sc1C(=O)c1c(Cl)cccc1Cl (stereo not shown) [DD(149)] | 55 | 57.7 | 33 |  |  |  | 
CN1CCCC(CS(=O)(=O)c2ccc(Nc3nc(N)c(C(=O)c4c(Cl)cccc4Cl)s3)cc2)C1 (stereo not shown) [DD(227)] |  |  |  | 16 | 15.2 | −12 | 
CC(C)OC(=O)C[S+]([O-])c1ccc(Nc2nc(N)c(C(=O)c3c(Cl)cccc3Cl)s2)cc1 (stereo not shown) [DD(103)] | 38 | 47.5 | -2.9 |  |  |  | 
CC(C)CC[S+]([O-])c1ccc(Nc2nc(N)c(C(=O)c3c(Cl)cccc3Cl)s2)cc1 (stereo not shown) [DD(93)] | 35 | 43 | -4.4 |  |  |  | 
CC(C)OC(=O)CCSc1cccc(Nc2nc(N)c(C(=O)c3c(Cl)cccc3Cl)s2)c1 [DD(78)] | 22 | 36.2 | 13 |  |  |  | 
CN(c1ccc(S(=O)(=O)CC(O)CO)cc1)c1nc(N)c(C(=O)c2c(Cl)cccc2Cl)s1 (stereo not shown) [DD(234)] | 35 | 26.1 | 9.6 |  |  |  | 
Nc1nc(Nc2ccc([S+]([O-])CC3CO3)cc2)sc1C(=O)c1c(Cl)cccc1Cl (stereo not shown) [DD(92)] | 26 | 65.8 | -4.6 |  |  |  | 
CC(C)CCSc1ccc(Nc2nc(N)c(C(=O)c3c(Cl)cccc3Cl)s2)cc1 [DD(13)] | 4.7 | 35.3 | 0.6 |  |  |  | 
Nc1nc(Nc2ccc(S(=O)(=O)CC(=O)Nc3ccccc3)cc2)sc1C(=O)c1c(Cl)cccc1Cl [DD(175)] | 23 |  |  |  | 12.4 | −14 | 
CSc1cccc(Nc2nc(N)c(C(=O)c3c(Cl)cccc3Cl)s2)c1 [R(3), 4-Amino-5-(2,6-dichlorobenzoyl)-2-(3-methylthio-phenylamino)-thiazole] |  |  |  |  |  |  | 74
CC(C)CCOC(=O)CS(=O)(=O)c1ccc(Nc2nc(N)c(C(=O)c3c(Cl)cccc3Cl)s2)cc1 [DD(193)] |  |  |  | 31 | 61.1 | −2.9 | 
Nc1nc(Nc2ccc(S(=O)(=O)CCO)cc2)sc1C(=O)c1c(Cl)cccc1Cl [DD(229)] |  |  |  | 23 | 3.5 | −13 | 

Reference: US20040176431A1, “Antiproliferative 2-(sulfo-phenyl)-aminothiazole derivatives and pharmaceutical compositions, and methods for their use” (Pfizer, Inc., priority 2003, published 2004)
